The IC50 is the point on the concentration scale where inhibition reaches its midpoint.

The values below come from publication PMC9669269 (Journal of Computational Chemistry, 2022).

A value given as a limit tells only on which side of the number the result lay.

Experiment in all cases: HTRF displacement of biotinylated H4Ac4 peptide
What all share (type): binding
Background: TR-FRET usually uses a lanthanide donor and a delayed reading to cut background.

Assay [1] has as its target T1, CaBD1 (CaBdf1 BD1) (Candida albicans, UniProt Q5A4W8).
T1 sequence (Q5A4W8 193-327): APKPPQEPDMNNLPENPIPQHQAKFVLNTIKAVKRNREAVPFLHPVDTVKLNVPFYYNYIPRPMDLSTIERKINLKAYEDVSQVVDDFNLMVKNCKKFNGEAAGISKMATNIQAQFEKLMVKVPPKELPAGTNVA

Assay [2] concerns the target hBrd4 BD2 (Homo sapiens, UniProt O60885).
The target of assay [3] is T2, CaBD2 (CaBdf1 BD2) (Candida albicans, UniProt Q5A4W8).
T2 sequence (Q5A4W8 386-491): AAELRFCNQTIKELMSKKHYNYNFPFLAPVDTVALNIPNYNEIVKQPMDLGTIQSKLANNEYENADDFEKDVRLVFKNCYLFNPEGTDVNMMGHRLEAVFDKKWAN

The target in assay [4] is hBrd4 BD1 (Homo sapiens, UniProt O60885).

In the case of `Cc1cccn2c(Nc3ccc(N)cc3)c(-c3ccc(O)cc3)nc12` [1h, 4‐(3‐([4‐Aminophenyl]amino)‐8‐methylimidazo[1,2‐a]pyridin‐2‐yl)phenol], the IC50 is over 20 µM in assay [1], 2.24 ± 0.65 µM in assay [2], 0.37 ± 0.09 µM in assay [3] and over 20 µM in assay [4].
Consider `Cc1ccc(Nc2c(-c3ccc(O)cc3)nc3c(Cl)cccn23)cc1` [1e, 4‐(8‐Chloro‐3‐(p‐tolylamino)imidazo[1,2‐a]pyridin‐2‐yl)phenol], for which the half-inhibitory concentration (IC50) in assay [1] is over 20 µM; in assay [2] it was 16 ± 1.2 µM; in assay [3], 1.5 ± 0.42 µM; in assay [4] it was over 20 µM.
Regarding `Cc1ccc(Nc2c(-c3ccc(O)cc3)nc3c(C)cccn23)cc1O` [1c, 5‐((2‐(4‐Hydroxyphenyl)‐8‐methylimidazo[1,2‐a]pyridin‐3‐yl)amino)‐2‐methylphenol], the half-inhibitory concentration (IC50) in assay [1] is over 20 µM; in assay [2], over 20 µM; in assay [3] it was 0.78 ± 0.15 µM; in assay [4] it was over 20 µM.
For `Cc1cccn2c(Nc3ccc([N+](=O)[O-])cc3)c(-c3ccc(O)cc3)nc12` [1j, 4‐(8‐Methyl‐3‐([4‐nitrophenyl]amino)imidazo[1,2‐a]pyridin‐2‐yl)phenol], the IC50 in assay [1] was over 20 µM; in assay [2], over 20 µM; in assay [3], 4.39 ± 1.04 µM; in assay [4], over 20 µM.
As to `Cc1ccc(Nc2c(-c3ccc(O)cc3F)nc3c(C)cccn23)cc1` [1b, 3‐Fluoro‐4‐(8‐methyl‐3‐(p‐tolylamino)imidazo[1,2‐a]pyridin‐2‐yl)phenol], the IC50 in assay [1] is over 20 µM; in assay [2], over 20 µM; in assay [3], 5.22 ± 2.12 µM; in assay [4], over 20 µM.
Consider `Cc1cccn2c(Nc3ccc(Br)cc3)c(-c3ccc(O)cc3)nc12` [1i, 4‐(3‐([4‐Bromophenyl]amino)‐8‐methylimidazo[1,2‐a]pyridin‐2‐yl)phenol], for which the half-inhibitory concentration (IC50) is over 20 µM in assay [1], 12.8 ± 3.2 µM in assay [2], 4.35 ± 0.63 µM in assay [3] and over 20 µM in assay [4].
On to `Cc1ccc(Nc2c(-c3ccc(O)cc3)nc3c(C)cccn23)cc1` [compound 1, imidazopyridine (1)], for which the half-inhibitory concentration (IC50) in assay [1] was over 20 µM; in assay [2], over 20 µM; in assay [3] it was 3.9 ± 0.35 µM; in assay [4], over 20 µM.
On to `Cc1ccc(Nc2c(-c3ccc(O)cc3)nc3c(I)cccn23)cc1` [1g, 4‐(8‐Iodo‐3‐(p‐tolylamino)imidazo[1,2‐a]pyridin‐2‐yl)phenol], for which the half-maximal inhibitory concentration (IC50) was over 20 µM in assay [1], over 20 µM in assay [2], 1.01 ± 0.19 µM in assay [3] and over 20 µM in assay [4].
With `Cc1ccc(Nc2c(-c3ccc(O)cc3)nc3c(C)cccn23)c(O)c1` [1d, 2‐((2‐(4‐Hydroxyphenyl)‐8‐methylimidazo[1,2‐a]pyridin‐3‐yl)amino)‐5‐methylphenol], the IC50 in assay [1] is over 20 µM; in assay [2], over 20 µM; in assay [3], 9.74 ± 0.19 µM; in assay [4], over 20 µM.
As to `Cc1ccc(Nc2c(-c3ccc(O)cc3)nc3c(Br)cccn23)cc1` [1f, 4‐(8‐Bromo‐3‐(p‐tolylamino)imidazo[1,2‐a]pyridin‐2‐yl)phenol], the IC50 in assay [1] was over 20 µM; in assay [2] it was over 20 µM; in assay [3] it was 0.75 ± 0.25 µM; in assay [4], over 20 µM.
Take `Cc1ccc(Nc2c(-c3ccc(O)c(F)c3)nc3c(C)cccn23)cc1` [1a, 2‐Fluoro‐4‐(8‐methyl‐3‐(p‐tolylamino)imidazo[1,2‐a]pyridin‐2‐yl)phenol]: the IC50 in assay [1] was over 20 µM; in assay [2], 8.7 ± 1.8 µM; in assay [3], 6.3 ± 2.78 µM; in assay [4] it was 14.8 ± 6.9 µM.
